One experiment addresses T1, human TRPA1 (Homo sapiens, UniProt O75762).
T1 construct: expressed in transfected cells; host or cells: CHO cells (G-418 selection)
The experiment is described as follows: 45Calcium uptake assay: inhibition of AITC induced cellular uptake of radioactive calcium, human TRPA1 expressing CHO cells. The following applies: AITC 30 μM; for inhibition at 1 µM: 1.0 μM compound, read-out: human TRPA1 Percentage inhibition at 1.0 μM; for inhibition at 10 µM: 10.0 μM compound, read-out: human TRPA1 Percentage inhibition at 10.0 μM; for IC50: class symbols. Type of experiment: cell-based. The source says:
The illustrative examples of the present invention are screened for TRPA1 activity according to a modified procedure described in (a) Tóth, A. et al. Life Sciences, 2003, 73, 487-498. (b) McNamara C, R. et al, Proc. Natl. Acad. Sci. U.S.A., 2007, 104, 13525-13530. The screening of the compounds can be carried out by other methods and procedures known to persons skilled in the art.
(§1) Screening for TRPA1 Antagonist Using the ^45Calcium Uptake Assay:
(§2) The inhibition of TRPA1 receptor activation was measured as inhibition of allyl isothiocyanate (AITC) induced cellular uptake of radioactive calcium.
Test compounds were dissolved in 100% DMSO to prepare 10 mM stock and then diluted using plain medium with 0.1% BSA and 1.8 mM CaCl2 to get the desired concentration. The final concentration of DMSO in the reaction was 0.5% (v/v). Human TRPA1 expressing CHO cells were grown in F-12 DMEM medium with 10% FBS, 1% penicillin-streptomycin solution, and 400 μg/ml of G-418. Rat TRPA1 expressing CHO cells were grown in F-12 DMEM medium with 10% FBS, 1% penicillin-streptomycin solution, and 400 μg/ml of Zeocin. Cells were seeded 24 h prior to the assay in 96 well plates so as to get ˜50,000 cells per well on the day of experiment. Cells were treated with the test compounds for 10 minutes followed by the addition of AITC at a final concentration of 30 μM (for human TRPA1) and/or 10 μM (for rat TRPA1) and 5 μCi/ml ^45Ca^+2 for 3 minutes. Cells were washed and lysed using a buffer containing 1% Triton X-100, 0.1% deoxycholate and 0.1% SDS. Radioactivity in the lysate was measured in a Packard TopCount after addition of liquid scintillant. (Toth et al, Life Sciences (2003) 73, 487-498; McNamara C R et al, Proceedings of the National Academy of Sciences, (2007) 104, 13525-13530).
(§3) Concentration response curves were plotted as a % of maximal response obtained in the absence of test antagonist. IC50 values can be calculated from concentration response curve by nonlinear regression analysis using GraphPad PRISM software.

In a further experiment the target is T2, rat TRPA1 (Rattus norvegicus, UniProt Q6RI86).
T2 construct: expressed in transfected cells; host or cells: CHO cells (Zeocin selection)
T2 sequence (Q6RI86 whole entry): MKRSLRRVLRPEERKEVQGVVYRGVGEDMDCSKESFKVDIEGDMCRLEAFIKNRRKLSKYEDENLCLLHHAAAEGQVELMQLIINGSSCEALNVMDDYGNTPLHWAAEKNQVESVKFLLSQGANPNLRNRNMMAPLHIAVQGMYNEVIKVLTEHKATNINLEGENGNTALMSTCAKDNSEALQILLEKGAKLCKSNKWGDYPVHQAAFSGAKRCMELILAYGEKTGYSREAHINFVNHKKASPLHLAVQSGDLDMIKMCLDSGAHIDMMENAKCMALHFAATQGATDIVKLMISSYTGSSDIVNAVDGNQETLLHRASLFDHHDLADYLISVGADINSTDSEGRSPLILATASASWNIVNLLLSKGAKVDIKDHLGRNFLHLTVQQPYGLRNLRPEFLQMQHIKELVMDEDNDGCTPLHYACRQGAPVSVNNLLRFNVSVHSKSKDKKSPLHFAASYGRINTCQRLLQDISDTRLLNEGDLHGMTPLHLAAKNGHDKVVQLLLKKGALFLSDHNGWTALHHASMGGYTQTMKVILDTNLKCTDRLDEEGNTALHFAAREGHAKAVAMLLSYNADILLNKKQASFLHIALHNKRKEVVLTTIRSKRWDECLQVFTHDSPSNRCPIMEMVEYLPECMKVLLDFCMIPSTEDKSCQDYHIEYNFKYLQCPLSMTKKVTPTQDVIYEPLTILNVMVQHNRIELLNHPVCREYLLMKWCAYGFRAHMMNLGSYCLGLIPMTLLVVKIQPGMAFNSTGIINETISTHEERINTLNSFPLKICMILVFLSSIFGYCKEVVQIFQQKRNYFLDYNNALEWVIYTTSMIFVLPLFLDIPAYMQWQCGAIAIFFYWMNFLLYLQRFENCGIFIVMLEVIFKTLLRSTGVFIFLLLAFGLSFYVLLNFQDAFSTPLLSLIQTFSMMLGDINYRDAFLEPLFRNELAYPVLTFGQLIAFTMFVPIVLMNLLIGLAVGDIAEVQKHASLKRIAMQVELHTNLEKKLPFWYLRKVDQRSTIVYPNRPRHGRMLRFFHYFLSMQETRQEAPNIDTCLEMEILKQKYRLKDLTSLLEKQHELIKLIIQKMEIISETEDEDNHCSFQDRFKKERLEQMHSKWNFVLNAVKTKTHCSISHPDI
Briefly: 45Calcium uptake assay: inhibition of AITC induced cellular uptake of radioactive calcium, rat TRPA1 expressing CHO cells. The experiment is classed as cell-based. Conditions: AITC 10 μM; for IC50: class symbols; for inhibition at 10 µM: 10.0 μM compound, read-out: rat TRPA1 Percentage inhibition at 10.0 μM; for inhibition at 1 µM: read-out: rat TRPA1 Percentage inhibition. Here is the method:
as §1, §2
Test compounds were dissolved in 100% DMSO to prepare 10 mM stock and then diluted using plain medium with 0.1% BSA and 1.8 mM CaCl2 to get the desired concentration. The final concentration of DMSO in the reaction was 0.5% (v/v). […] Rat TRPA1 expressing CHO cells were grown in F-12 DMEM medium with 10% FBS, 1% penicillin-streptomycin solution, and 400 μg/ml of Zeocin. […] Cells were treated with the test compounds for 10 minutes followed by the addition of AITC at a final concentration of 30 μM (for human TRPA1) and/or 10 μM (for rat TRPA1) and 5 μCi/ml ^45Ca^+2 for 3 minutes. Cells were washed and lysed using a buffer containing 1% Triton X-100, 0.1% deoxycholate and 0.1% SDS. Radioactivity in the lysate was measured in a Packard TopCount after addition of liquid scintillant.
as §3

Among the data in patent publication US20120178766A1, “FUROPYRIMIDINEDIONE DERIVATIVES AS TRPAI MODULATORS” (priority 2009, published 2012) are inhibition and IC50 values, retold here.

Structures are written as SMILES.

T1 sequence (O75762 whole entry): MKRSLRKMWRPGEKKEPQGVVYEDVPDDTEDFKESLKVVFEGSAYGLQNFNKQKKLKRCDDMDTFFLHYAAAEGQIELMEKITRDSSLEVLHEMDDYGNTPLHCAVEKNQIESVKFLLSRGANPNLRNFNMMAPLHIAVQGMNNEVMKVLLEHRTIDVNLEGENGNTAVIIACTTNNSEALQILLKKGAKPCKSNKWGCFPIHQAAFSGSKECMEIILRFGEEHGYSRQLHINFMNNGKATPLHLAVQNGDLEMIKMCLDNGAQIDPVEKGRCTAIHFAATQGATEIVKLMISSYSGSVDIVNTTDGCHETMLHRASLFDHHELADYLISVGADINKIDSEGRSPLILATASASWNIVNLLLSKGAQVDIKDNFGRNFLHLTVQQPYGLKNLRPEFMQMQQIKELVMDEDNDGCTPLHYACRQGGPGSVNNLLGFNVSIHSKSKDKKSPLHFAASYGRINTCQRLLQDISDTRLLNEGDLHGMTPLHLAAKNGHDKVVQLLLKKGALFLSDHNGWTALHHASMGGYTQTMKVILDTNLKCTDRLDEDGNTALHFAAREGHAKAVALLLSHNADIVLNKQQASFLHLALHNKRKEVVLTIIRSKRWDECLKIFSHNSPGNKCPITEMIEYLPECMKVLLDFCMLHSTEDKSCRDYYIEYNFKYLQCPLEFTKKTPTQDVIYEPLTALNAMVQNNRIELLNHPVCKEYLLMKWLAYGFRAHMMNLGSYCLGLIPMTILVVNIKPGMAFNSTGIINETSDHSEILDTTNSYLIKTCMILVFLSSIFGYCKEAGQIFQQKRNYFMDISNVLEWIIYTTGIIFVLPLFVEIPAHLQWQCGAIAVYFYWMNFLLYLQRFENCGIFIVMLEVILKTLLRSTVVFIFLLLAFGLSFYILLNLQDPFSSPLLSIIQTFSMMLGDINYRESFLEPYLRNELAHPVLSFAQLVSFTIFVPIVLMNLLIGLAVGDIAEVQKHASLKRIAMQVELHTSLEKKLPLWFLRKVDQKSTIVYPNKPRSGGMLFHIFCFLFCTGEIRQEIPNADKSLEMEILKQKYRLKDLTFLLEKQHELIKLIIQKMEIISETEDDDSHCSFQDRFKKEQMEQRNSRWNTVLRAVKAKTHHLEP

Turning to `Cn1c(=O)c2c(CC(=O)Nc3nc(-c4ccc(Cl)c(Cl)c4)cs3)coc2n(C)c1=O` [Example 13, N1-[4-(3,4-Dichlorophenyl)-1,3-thiazol-2-yl]-2-(1,3-dimethyl-2,4-dioxo-1,2,3,4-tetrahydrofuro[2,3-d]pyrimidin-5-yl)acetamide], on human TRPA1, the inhibition at 1 µM was found to be 98.5%, the inhibition at 10 µM was 99.4% and the IC50 was under 50 nM. Besides, the IC50 on rat TRPA1 is over 100 nM.
As to `Cn1c(=O)c2c(CC(=O)Nc3nc(-c4ccc(C(F)(F)F)c(F)c4)cs3)coc2n(C)c1=O` [Example 14, N1-{4-[3-Fluoro-4-(trifluoromethyl)phenyl]-1,3-thiazol-2-yl}-2-(1,3-dimethyl-2,4-dioxo-1,2,3,4-tetrahydrofuro[2,3-d]pyrimidin-5-yl)acetamide], on human TRPA1, the inhibition at 1 µM worked out at 99.4%, the inhibition at 10 µM is 99.7% and the IC50 was under 50 nM. In addition, at rat TRPA1, the inhibition at 10 µM was determined as 100%, the inhibition at 1 µM was 100% and the IC50 was under 50 nM.
Regarding `Cn1c(=O)c2c(CC(=O)Nc3nc(-c4ccc(F)c(C(F)(F)F)c4)cs3)coc2n(C)c1=O` [Example 15, N1-{4-[4-Fluoro-3-(trifluoromethyl)phenyl]-1,3-thiazol-2-yl}-2-(1,3-dimethyl-2,4-dioxo-1,2,3,4-tetrahydrofuro[2,3-d]pyrimidin-5-yl)acetamide], on human TRPA1, the inhibition at 1 µM stood at 99.9%, the inhibition at 10 µM came out at 99.8% and the IC50 is under 50 nM. Also, at rat TRPA1, the inhibition at 10 µM stood at 99%, the inhibition at 1 µM was 100% and the IC50 was under 50 nM.
With `Cn1c(=O)c2c(CC(=O)Nc3nc(-c4ccc(F)c(OC(F)(F)F)c4)cs3)coc2n(C)c1=O` [Example 16, N1-{4-[4-Fluoro-3-(trifluoromethoxy)phenyl]-1,3-thiazol-2-yl}-2-(1,3-dimethyl-2,4-dioxo-1,2,3,4-tetrahydrofuro[2,3-d]pyrimidin-5-yl)acetamide], on human TRPA1, the inhibition at 1 µM was found to be 98.5%, the inhibition at 10 µM stood at 99.2% and the IC50 is under 50 nM. For the same compound, at rat TRPA1, the inhibition at 10 µM turned out to be 98.6%, the inhibition at 1 µM is 100% and the IC50 is under 50 nM.
As to `Cn1c(=O)c2c(CC(=O)Nc3nc(-c4ccc(OC(F)(F)F)c(F)c4)cs3)coc2n(C)c1=O` [Example 17, N1-{4-[3-Fluoro-4-(trifluoromethoxy)phenyl]-1,3-thiazol-2-yl}-2-(1,3-dimethyl-2,4-dioxo-1,2,3,4-tetrahydrofuro[2,3-d]pyrimidin-5-yl)acetamide], on human TRPA1, the inhibition at 1 µM came to 99.9%, the inhibition at 10 µM was determined as 100% and the IC50 is under 50 nM. At rat TRPA1, the inhibition at 10 µM was 99.8%, the inhibition at 1 µM was 97.7% and the half-inhibitory concentration (IC50) lay within 50 to 100 nM.
For `Cn1c(=O)c2c(CC(=O)Nc3nc(-c4ccc(Cl)c(C(F)(F)F)c4)cs3)coc2n(C)c1=O` [Example 18, N1-{4-[4-Chloro-3-(trifluoromethyl)phenyl]-1,3-thiazol-2-yl}-2-(1,3-dimethyl-2,4-dioxo-1,2,3,4-tetrahydrofuro[2,3-d]pyrimidin-5-yl)acetamide], on human TRPA1, the inhibition at 1 µM was found to be 99.9%, the inhibition at 10 µM was determined as 100% and the IC50 is under 50 nM. Besides, at rat TRPA1, the inhibition at 10 µM was determined as 94.1%, the inhibition at 1 µM turned out to be 99.9% and the IC50 lay within 50 to 100 nM.
For `Cn1c(=O)c2c(CC(=O)Nc3nc(-c4ccc(Cl)c(OC(F)(F)F)c4)cs3)coc2n(C)c1=O` [Example 19, N1-{4-[4-Chloro-3-(trifluoromethoxy)phenyl]-1,3-thiazol-2-yl]-2-(1,3-dimethyl-2,4-dioxo-1,2,3,4-tetrahydrofuro[2,3-d]pyrimidin-5-yl)acetamide], at human TRPA1, the inhibition at 1 µM came to 99.9%, the inhibition at 10 µM was found to be 100% and the IC50 is under 50 nM. At rat TRPA1, the inhibition at 10 µM was 98.2%, the inhibition at 1 µM worked out at 98.9% and the IC50 is 50 to 100 nM.
Take `Cn1c(=O)c2c(CC(=O)Nc3nc(-c4cccc(C(F)(F)F)c4F)cs3)coc2n(C)c1=O` [Example 20, N1-{4-[2-Fluoro-3-(trifluoromethyl)phenyl]-1,3-thiazol-2-yl}-2-(1,3-dimethyl-2,4-dioxo-1,2,3,4-tetrahydrofuro[2,3-d]pyrimidin-5-yl)acetamide]: on human TRPA1, the inhibition at 1 µM worked out at 98.5%, the inhibition at 10 µM amounted to 97.5% and the IC50 was under 50 nM. In addition, on rat TRPA1, the inhibition at 10 µM turned out to be 99.8%, the inhibition at 1 µM is 96.8% and the IC50 was under 50 nM.
For the compound `Cn1c(=O)c2c(CC(=O)Nc3nc(-c4cc(F)cc(C(F)(F)F)c4)cs3)coc2n(C)c1=O` [Example 21, N1-{4-[3-Fluoro-5-(trifluoromethyl)phenyl]-1,3-thiazol-2-yl}-2-(1,3-dimethyl-2,4-dioxo-1,2,3,4-tetrahydrofuro[2,3-d]pyrimidin-5-yl)acetamide], at human TRPA1, the inhibition at 1 µM amounted to 99.8%, the inhibition at 10 µM is 99.8% and the IC50 was under 50 nM. Further, on rat TRPA1, the inhibition at 10 µM is 99.9%, the inhibition at 1 µM was 98.9% and the IC50 is under 50 nM.
Regarding `Cn1c(=O)c2c(CC(=O)Nc3nc(-c4ccc(C(F)(F)F)cc4F)cs3)coc2n(C)c1=O` [Example 22, N1-{4-[2-Fluoro-4-(trifluoromethyl)phenyl]-1,3-thiazol-2-yl}-2-(1,3-dimethyl-2,4-dioxo-1,2,3,4-tetrahydrofuro[2,3-d]pyrimidin-5-yl)acetamide], at human TRPA1, the inhibition at 1 µM amounted to 99.3%, the inhibition at 10 µM came to 98.5% and the IC50 is under 50 nM. In addition, at rat TRPA1, the inhibition at 10 µM is 100% and the inhibition at 1 µM was 100%.
With `Cn1c(=O)c2c(CC(=O)Nc3nc(-c4ccc(OC(F)F)c(F)c4)cs3)coc2n(C)c1=O` [Example 23, N1-[4-(3-Fluoro-4-difluoromethoxyphenyl)-1,3-thiazol-2-yl]-2-(1,3-dimethyl-2,4-dioxo-1,2,3,4-tetrahydrofuro[2,3-d]pyrimidin-5-yl)acetamide], at human TRPA1, the inhibition at 1 µM was found to be 96.3%, the inhibition at 10 µM came to 99% and the IC50 was under 50 nM. Besides, at rat TRPA1, the inhibition at 10 µM is 95.5%, the inhibition at 1 µM came to 92.6% and the IC50 is over 100 nM.
As to `Cn1c(=O)c2c(CC(=O)Nc3nc(-c4ccc(OC(F)F)c(Cl)c4)cs3)coc2n(C)c1=O` [Example 24, N1-[4-(3-Chloro-4-difluoromethoxyphenyl)-1,3-thiazol-2-yl]-2-(1,3-dimethyl-2,4-dioxo-1,2,3,4-tetrahydrofuro[2,3-d]pyrimidin-5-yl)acetamide], at human TRPA1, the inhibition at 1 µM turned out to be 97.4%, the inhibition at 10 µM worked out at 99.8% and the IC50 is under 50 nM. On rat TRPA1, the inhibition at 10 µM is 99.6%, the inhibition at 1 µM worked out at 100% and the IC50 is over 100 nM.
Take `Cn1c(=O)c2c(CC(=O)Nc3nc(-c4ccc(OCC(C)(C)C)c(F)c4)cs3)coc2n(C)c1=O` [Example 26, N1-{4-[4-(2,2-Dimethylpropoxy)-3-fluorophenyl]-1,3-thiazol-2-yl}-2-(1,3-dimethyl-2,4-dioxo-1,2,3,4-tetrahydrofuro[2,3-d]pyrimidin-5-yl)acetamide]: on human TRPA1, the inhibition at 1 µM turned out to be 97.6%, the inhibition at 10 µM was determined as 99.3% and the IC50 was under 50 nM. At rat TRPA1, the inhibition at 10 µM was 99.9% and the inhibition at 1 µM worked out at 98.6%.
